The values that follow come from ChEMBL document CHEMBL1144757, “Stylopeptide 2, a proline-rich cyclodecapeptide from the sponge Stylotella sp” (2008).

Where a SMILES comes first, the peptide text is derived from it.

The subject of one experiment is BT-549. Description: Growth inhibition of human BT549 cells at 10 uM. The experiment is classed as functional.
The next experiment deals with Hs-578T. Description: Growth inhibition of human HS578T cells at 10 uM. The experiment is classed as functional.

Turning to `CC(C)C[C@@H]1NC(=O)[C@H]([C@@H](C)O)NC(=O)[C@@H]2CCCN2C(=O)[C@H](Cc2ccccc2)NC(=O)[C@@H]2CCCN2C(=O)[C@H](Cc2ccc(O)cc2)NC(=O)[C@@H]2CCCN2C(=O)[C@H](Cc2ccccc2)NC(=O)[C@@H]2CCCN2C(=O)[C@H](CC(C)C)NC1=O` [STYLOPEPTIDE 2] (cyclo(FPTLLPFPYP)), the inhibition (usually how much of the control response was suppressed) at 10 µM with BT-549 was determined as 77%; in the experiment with Hs-578T, 56%.
